For two compounds, TGI results are on record in PubChem BioAssay (NCI).

For the test, the system named is SN12K1 renal. Kind of test: growth of human tumour cells (NCI), 48 h.

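96-well plates; 48 h exposure; 5 concentrations. Endpoints by linear interpolation between flanking doses. Not reached: highest tested concentration assigned. Definition used: TGI = concentration required for complete inhibition of growth.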

For the compound `COC(C(=O)C(O)C(C)O)C1Cc2cc3cc(OC4CC(OC(C)=O)C(OC5CC(O)C(OC)C(C)O5)C(C)O4)cc(O)c3c(O)c2C(=O)C1OC1CC(OC2CC(OC3CC(C)(O)C(OC(=O)C(C)C)C(C)O3)C(O)C(C)O2)C(O)C(C)O1` (configuration not stated), the TGI came out at 12.6 nM.

Compound `CCc1ccccc1N1CCN(C(=O)c2cc(OC)c(OC)c(OC)c2)CC1` yielded a TGI of 194 nM.
